Results reported in patent US20120178766A1, “FUROPYRIMIDINEDIONE DERIVATIVES AS TRPAI MODULATORS” (priority 2009, published 2012).

Columns and labels:
[1] = biological target: T1, rat TRPA1 (Rattus norvegicus, UniProt Q6RI86); assay: 45Calcium uptake assay: inhibition of AITC induced cellular uptake of radioactive calcium, rat TRPA1 expressing CHO cells; type: cell-based; conditions: AITC 10 μM; for IC50: class symbols; for inhibition at 10 µM: 10.0 μM compound, read-out: rat TRPA1 Percentage inhibition at 10.0 μM; for inhibition at 1 µM: read-out: rat TRPA1 Percentage inhibition
T1 construct: expressed in transfected cells; host or cells: CHO cells (Zeocin selection)
Summary of the method: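 CHO cells expressing rat or human TRPA1 were pre-treated with compound for 10 min, then given AITC (30 μM human, 10 μM rat) plus 5 μCi/ml 45Ca2+ for 3 min; final DMSO 0.5%. Lysate radioactivity was counted by scintillation. IC50 came from nonlinear regression of concentration-response curves as % of maximal response.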

[2] = biological target: T2, human TRPA1 (Homo sapiens, UniProt O75762); assay: 45Calcium uptake assay: inhibition of AITC induced cellular uptake of radioactive calcium, human TRPA1 expressing CHO cells; type: cell-based; conditions: AITC 30 μM; for inhibition at 1 µM: 1.0 μM compound, read-out: human TRPA1 Percentage inhibition at 1.0 μM; for inhibition at 10 µM: 10.0 μM compound, read-out: human TRPA1 Percentage inhibition at 10.0 μM
T2 construct: expressed in transfected cells; host or cells: CHO cells (G-418 selection)
Summary of the method: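 CHO cells expressing TRPA1 were preincubated 10 min with compound (0.5% DMSO final), then given AITC (30 μM human, 10 μM rat) plus 5 μCi/ml 45Ca2+ for 3 min. Lysate radioactivity measured by scintillation; IC50 obtained by nonlinear regression of % maximal response without antagonist.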

T2 sequence (O75762 whole entry): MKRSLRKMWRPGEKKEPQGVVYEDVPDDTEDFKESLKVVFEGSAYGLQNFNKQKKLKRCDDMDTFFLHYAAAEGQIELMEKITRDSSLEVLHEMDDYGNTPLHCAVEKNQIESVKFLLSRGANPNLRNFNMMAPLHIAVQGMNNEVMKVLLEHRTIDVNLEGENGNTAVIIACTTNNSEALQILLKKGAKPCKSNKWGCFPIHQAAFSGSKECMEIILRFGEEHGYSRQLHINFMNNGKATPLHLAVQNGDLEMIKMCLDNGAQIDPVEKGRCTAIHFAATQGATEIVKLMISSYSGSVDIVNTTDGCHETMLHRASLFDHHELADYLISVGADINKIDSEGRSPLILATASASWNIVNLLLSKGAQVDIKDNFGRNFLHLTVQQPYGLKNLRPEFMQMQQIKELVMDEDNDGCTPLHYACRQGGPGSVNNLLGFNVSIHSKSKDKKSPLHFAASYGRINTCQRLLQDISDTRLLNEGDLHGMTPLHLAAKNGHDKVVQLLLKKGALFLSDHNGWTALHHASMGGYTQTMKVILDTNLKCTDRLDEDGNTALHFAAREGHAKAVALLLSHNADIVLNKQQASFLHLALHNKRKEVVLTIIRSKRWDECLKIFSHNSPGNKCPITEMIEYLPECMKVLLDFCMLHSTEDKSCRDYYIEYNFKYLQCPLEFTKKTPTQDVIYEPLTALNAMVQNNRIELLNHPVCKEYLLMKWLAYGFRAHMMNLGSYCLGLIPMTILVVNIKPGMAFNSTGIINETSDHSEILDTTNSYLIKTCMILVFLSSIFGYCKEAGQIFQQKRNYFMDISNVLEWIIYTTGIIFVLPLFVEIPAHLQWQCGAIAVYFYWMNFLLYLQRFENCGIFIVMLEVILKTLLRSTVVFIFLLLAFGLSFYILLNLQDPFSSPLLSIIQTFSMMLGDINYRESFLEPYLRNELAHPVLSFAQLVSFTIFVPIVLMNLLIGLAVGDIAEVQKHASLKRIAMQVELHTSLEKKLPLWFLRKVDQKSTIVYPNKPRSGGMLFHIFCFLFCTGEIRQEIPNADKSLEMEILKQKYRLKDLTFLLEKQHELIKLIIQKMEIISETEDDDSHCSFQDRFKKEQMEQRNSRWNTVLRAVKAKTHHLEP
T1 sequence (Q6RI86 whole entry): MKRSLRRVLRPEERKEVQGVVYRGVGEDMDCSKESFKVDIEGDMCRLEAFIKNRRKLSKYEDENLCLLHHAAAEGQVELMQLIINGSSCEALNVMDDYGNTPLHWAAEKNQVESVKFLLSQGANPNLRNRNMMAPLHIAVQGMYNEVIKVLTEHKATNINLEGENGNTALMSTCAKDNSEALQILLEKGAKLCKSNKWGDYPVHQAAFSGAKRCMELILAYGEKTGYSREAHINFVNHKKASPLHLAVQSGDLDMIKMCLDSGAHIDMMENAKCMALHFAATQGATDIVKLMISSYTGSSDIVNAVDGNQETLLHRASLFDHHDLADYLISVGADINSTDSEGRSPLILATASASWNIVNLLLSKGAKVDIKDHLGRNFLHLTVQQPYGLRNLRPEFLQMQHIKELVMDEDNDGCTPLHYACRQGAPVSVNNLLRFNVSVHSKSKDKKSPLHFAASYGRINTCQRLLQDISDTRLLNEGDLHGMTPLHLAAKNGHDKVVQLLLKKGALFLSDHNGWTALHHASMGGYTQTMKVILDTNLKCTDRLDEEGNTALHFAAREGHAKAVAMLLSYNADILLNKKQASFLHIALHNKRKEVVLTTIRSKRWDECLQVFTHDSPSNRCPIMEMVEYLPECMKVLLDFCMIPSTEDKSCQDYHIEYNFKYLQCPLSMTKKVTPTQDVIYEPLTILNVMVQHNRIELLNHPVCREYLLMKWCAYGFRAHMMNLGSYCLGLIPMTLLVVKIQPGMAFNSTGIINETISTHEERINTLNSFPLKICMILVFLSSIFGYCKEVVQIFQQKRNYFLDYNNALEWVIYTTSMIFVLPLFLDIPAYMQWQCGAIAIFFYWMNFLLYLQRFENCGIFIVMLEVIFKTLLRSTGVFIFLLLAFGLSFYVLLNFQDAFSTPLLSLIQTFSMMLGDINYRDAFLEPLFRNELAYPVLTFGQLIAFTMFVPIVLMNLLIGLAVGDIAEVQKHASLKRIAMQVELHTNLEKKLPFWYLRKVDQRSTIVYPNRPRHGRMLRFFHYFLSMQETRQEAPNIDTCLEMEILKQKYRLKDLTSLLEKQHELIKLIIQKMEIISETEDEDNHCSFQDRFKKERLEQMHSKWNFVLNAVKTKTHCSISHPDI

IC50 [1] [nM] | IC50 ([2]; numeric values) [nM] | inhibition at 10 µM [1] [%] | inhibition at 1 µM [1] [%] | inhibition at 1 µM [2] [%] | inhibition at 10 µM [2] [%] | IC50 ([2]; class symbols) [nM] | Compound
– | – | 100 | 99.9 | 99.6 | 98.3 | – | Cc1oc2c(c1CC(=O)Nc1nc(-c3ccc(C(F)(F)F)cc3)cs1)c(=O)n(C)c(=O)n2C [Example 50, N1-{4-[4-(Trifluoromethyl)phenyl]-1,3-thiazol-2-yl}-2-(1,3,6-trimethyl-2,4-dioxo-1,2,3,4-tetrahydrofuro[2,3-d]pyrimidin-5-yl)acetamide]
< 50 | – | – | – | – | – | < 50 | Cc1oc2c(c1CC(=O)Nc1nc(-c3ccc(F)c(OC(F)(F)F)c3)cs1)c(=O)n(C)c(=O)n2C [Example 68, N1-{4-[4-Fluoro-3-(trifluoromethoxy)phenyl]-1,3-thiazol-2-yl}-2-(1,3,6-trimethyl-2,4-dioxo-1,2,3,4-tetrahydrofuro[2,3-d]pyrimidin-5-yl)acetamide]
50 to 100 | – | – | – | – | – | < 50 | Cc1oc2c(c1CC(=O)Nc1nc(-c3cc(Cl)cc(OC(F)(F)F)c3)cs1)c(=O)n(C)c(=O)n2C [Example 71]
< 50 | – | – | – | – | – | < 50 | Cc1oc2c(c1CC(=O)Nc1nc(-c3ccc(OC(F)(F)F)c(Cl)c3)cs1)c(=O)n(C)c(=O)n2C [Example 70, N1-{4-[3-Chloro-4-(trifluoromethoxy)phenyl]-1,3-thiazol-2-yl}-2-(1,3,6-trimethyl-2,4-dioxo-1,2,3,4-tetrahydrofuro[2,3-d]pyrimidin-5-yl)acetamide]

Continued, compound first:

Compound | IC50 [1] [nM] | IC50 ([2]; numeric values) [nM] | inhibition at 10 µM [1] [%] | inhibition at 1 µM [1] [%] | inhibition at 1 µM [2] [%] | inhibition at 10 µM [2] [%] | IC50 ([2]; class symbols) [nM]
Cc1oc2c(c1CC(=O)Nc1nc(-c3cc(F)c(OCC(C)(C)C)c(F)c3)cs1)c(=O)n(C)c(=O)n2C [Example 80] | < 50 | 3.63 | – | – | – | – | –
Cn1c(=O)c2c(CC(=O)Nc3nc(-c4cc(F)cc(C(F)(F)F)c4)cs3)coc2n(C)c1=O [Example 21, N1-{4-[3-Fluoro-5-(trifluoromethyl)phenyl]-1,3-thiazol-2-yl}-2-(1,3-dimethyl-2,4-dioxo-1,2,3,4-tetrahydrofuro[2,3-d]pyrimidin-5-yl)acetamide] | < 50 | – | 99.9 | 98.9 | 99.8 | 99.8 | < 50
Cc1oc2c(c1CC(=O)Nc1nc(-c3cc(Cl)c(OCC(C)C)c(Cl)c3)cs1)c(=O)n(C)c(=O)n2C [Example 82, N1-[4-(3,5-Dichloro-4-isobutoxyphenyl)-1,3-thiazol-2-yl]-2-(1,3,6-trimethyl-2,4-dioxo-1,2,3,4-tetrahydrofuro[2,3-d]pyrimidin-5-yl)acetamide] | < 50 | 3.34 | 100 | 100 | – | – | –
Cc1oc2c(c1CC(=O)Nc1nc(-c3ccc(F)c(C(F)(F)F)c3)c(C)s1)c(=O)n(C)c(=O)n2C [Example 90, N1-{4-[4-Fluoro-3-(trifluoromethyl)phenyl]-5-methyl-1,3-thiazol-2-yl}-2-(1,3,6-trimethyl-2,4-dioxo-1,2,3,4-tetrahydrofuro[2,3-d]pyrimidin-5-yl)acetamide] | – | 14.2 | 99.5 | 98 | – | – | –
Cn1c(=O)c2c(CC(=O)Nc3nc(-c4ccc(F)c(C(F)(F)F)c4)cs3)coc2n(C)c1=O [Example 15, N1-{4-[4-Fluoro-3-(trifluoromethyl)phenyl]-1,3-thiazol-2-yl}-2-(1,3-dimethyl-2,4-dioxo-1,2,3,4-tetrahydrofuro[2,3-d]pyrimidin-5-yl)acetamide] | < 50 | – | 99 | 100 | 99.9 | 99.8 | < 50
Cc1oc2c(c1CC(=O)Nc1nc(-c3cccc(C(F)(F)F)c3F)cs1)c(=O)n(C)c(=O)n2C [Example 61, N1-{4-[2-Fluoro-3-(trifluoromethyl)phenyl]-1,3-thiazol-2-yl}-2-(1,3,6-trimethyl-2,4-dioxo-1,2,3,4-tetrahydrofuro[2,3-d]pyrimidin-5-yl)acetamide] | < 50 | – | – | – | – | – | < 50
